# From PMC9964544, “Evidence of Insulin-Sensitizing and Mimetic Activity of the Sesquiterpene Quinone Avarone, a Protein Tyrosine Phosphatase 1B and Aldose Reductase Dual Targeting Agent from the Marine Sponge Dysidea avara” (Pharmaceutics, 2023)
# Entries after “also recorded” stand apart in the source; their conditions may differ.
# Experiments:
# C2C12 cells [1] = test: Glucose uptake assay (2-NBDG, flow cytometry) in C2C12 cells; type: cell-based; settings: 30 min
# Experimental: To evaluate the impact of avarone (2) on the insulin signaling pathway, C2C12 cells were plated on P35 dishes and grown until 70% confluence. Then, cells were washed with phosphate-buffered saline (PBS) and incubated for 24 h in the presence of a starvation medium (DMEM high glucose containing 2 mM glutamine, 100 U/mL of penicillin, and 100 μg/mL of streptomycin). After this time, cells were stimulated for 30 min with 10 nM insulin (Humulin R, Ely Lilly, Italy) with avarone (2) or the insulin-avarone combination. After this time, cells were washed with cold PBS and lysed using 100 µL of 1X Laemmli sample buffer solution (50 mM Tris-HCl pH 6.8, 2% SDS, 10% glycerol, 1% β-mercaptoethanol, 12.5 mM EDTA, 0.02% bromophenol blue). Cell proteins were withdrawn, transferred in an Eppendorf tube and boiled for 5 min. All samples were stored at −20 °C before the analysis. Analysis of samples was carried out using SDS-PAGE; after electrophoresis, proteins were transferred on a PVDF membrane by Western blot. Phosphorylation levels of the insulin receptor β chain and of the kinase Akt were evaluated using specific antibodies: IR β subunit, clone CT-3 (MABS65) was from Santa Cruz Biotechnology (Santa Cruz, CA, USA); pIR β subunit, Y1162/1163 (sc-25103-R) was from Merck-Millipore (Burlington, MA, USA). Akt (9272S) and p-Akt (9271S) antibodies were from Cell Signaling Technology (Danvers, MA, USA). Finally, β-actin and clone C-4 (sc-47778) were from Merck-Millipore (Burlington, MA, USA). Anti-rabbit and anti-mouse secondary antibodies were from Santa Cruz Biotechnology (Santa Cruz, CA, USA). Detection was performed using Clarity western ECL substrates (BioRad Laboratories, Inc. 1000 Alfred Nobel DriveHercules, CA, USA). Quantitation of the images obtained was carried out using iBright Analysis Software (Thermo Fisher Scientific 168 Third Avenue Waltham, MA, USA, 02451). Glucose uptake was evaluated as previously described. […] Intrinsic and 2-NBDG-derived cell fluorescences were determined using a flow cytometer (FACSCanto II, BD Biosciences, San Jose, CA, USA). […] Quantitative analysis was carried out using FlowJo software (FlowJo^TM v10. BD FlowJo™ Software for Windows Version 10. Ashland, OR: Becton, Dickinson and Company; 2021).
# Figure 8 Glucose uptake assay. […] After, cells were washed with PBS, detached using trypsin, collected by centrifugation, and analyzed using a flow cytometer (FACSCanto II, BD Biosciences). […] For each experiment, 10,000 events were analyzed. […] (B) Quantitation of fluorescence levels. […]
# Figure 9 Impact of cytochalasin B on avarone-induced glucose uptake. […] After, cells were washed and incubated for 3 h with 40 µM 2-NBDG and then analyzed using a flow cytometer (FACSCanto II, BD Biosciences). For each experiment, 10,000 events were analyzed. […]
# C2C12 cells [2] = test: Seahorse XFe96 Mito Stress Test in C2C12 cells; type: cell-based; settings: C2C12 treated for 30 min
# Experimental: C2C12 cells (3 × 10^4 cells/well) were placed in XFe96 cell culture plates. After 24 h of incubation at 37 °C, cell growth medium was substituted with an XF base medium supplemented with 2 mM glutamine, 1 mM sodium pyruvate, and 10 mM glucose, pH 7.4. The plate was then transferred in a non-CO2 incubator for 1 h at 37 °C to pre-equilibrate the cells before analysis. An XF Mito Stress Test was performed to assay the cells’ ability to exploit mitochondrial oxidative metabolism, according to the manufacturer’s instructions. The oxygen consumption rate (OCR) was evaluated after the injection of a sequence of compounds that interfere with the electron transport chain: oligomycin (1 μM), carbonyl cyanide-4 (trifluoromethoxy) phenylhydrazone (FCCP) (1 μM), and Rotenone/Antimycin A (0.5 μM). All data were normalized on the protein content of each well.
# Figure 10 Results of Mito Stress Test assay. (A) C2C12 cells were subjected to Seahorse XFe96-Mito Stress Test analysis to evaluate oxygen consumption rate (OCR) in real time. OCR values were normalized on protein content. (B) Basal respiration, ATP-linked OCR, spare capacity, maximal respiration, and proton leak were calculated using data obtained from OCR plot after the administration of the adenosine triphosphate ATP synthase inhibitor oligomycin, the proton uncoupler carbonylcyanide p-trifluoromethoxyphenylhydrazone (FCCP), and the combination of the respiratory complex I inhibitor rotenone and the respiratory complex III inhibitor antimycin A. Each point reported in the OCR plot represents the medium value ± SEM obtained from independent replicates (n = 3 or 4). One-way ANOVA with Dunnett’s correction was used to assess differences in experimental features by using Prism 8 software (GraphPad). Statistical significance is annotated as follows: * p ≤ 0.01, ** p ≤ 0.001, *** p ≤ 0.0001, (t-test); ns, not significant; FC, fold change.
structure (smiles),measurement,setting,value
"CC1=CCC[C@H]2[C@](C)(CC3=CC(=O)C=CC3=O)[C@@H](C)CC[C@]12C [avarone (2), avarone]","glucose uptake (2-NBDG fluorescence), insulin-avarone combination","C2C12 cells [1]; 25 µM avarone + 10 nM insulin, versus insulin alone",significantly increase
same,glucose uptake (2-NBDG fluorescence),"C2C12 cells [1]; 25 µM avarone alone, then 40 µM 2-NBDG 3 h",higher amounts of fluorescent glucose; also recorded: stimulates glucose uptake more efficiently than insulin itself
same,basal respiration (OCR),C2C12 cells [2],does not alter basal respiration
same,maximal respiration,C2C12 cells [2],slightly increases; also recorded: increases
same,oxygen-dependent ATP production,C2C12 cells [2],does not impair the oxygen-dependent ATP production
same,proton leak rate,C2C12 cells [2],without enhancing the proton leak rate
same,spare capacity,C2C12 cells [2],slightly increases; also recorded: increases
